Experimental data taken from patent publication US20150105252A1, “SUBSTITUTED PYRAZOLES AS HERBICIDES” (E I DU PONT DE NEMOURS AND COMPANY, priority 2013, published 2015).

Key:
blackgrass = experiment: Test D preemergence; format: in vivo, Alopecurus myosuroides; conditions: Preemergence, scale 0 to 100
Procedure, shortened: (§1)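 Scores of 0 (no effect) to 100 (complete control) come from visual comparison with untreated plants 14–21 days after spraying. Applications were made pre-emergence to silt loam or post-emergence to plants 2–18 cm tall.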

canarygrass = experiment: Test D preemergence; format: in vivo, Phalaris minor; conditions: Preemergence, scale 0 to 100
Procedure, shortened: as §1

chickweed = experiment: Test D preemergence; format: in vivo, Stellaria media; conditions: Preemergence, scale 0 to 100
Procedure, shortened: as §1

galium = experiment: Test D preemergence; format: in vivo, Galium aparine; conditions: Preemergence, scale 0 to 100
Procedure, shortened: as §1

field poppy = experiment: Test D preemergence; format: in vivo, Papaver rhoeas; conditions: Preemergence, scale 0 to 100
Procedure, shortened: as §1

ryegrass, Italian [1] = experiment: Test D preemergence; format: in vivo, Lolium multiflorum; conditions: Preemergence, scale 0 to 100
Procedure, shortened: as §1

lambsquarters = experiment: Test D preemergence; format: in vivo, Chenopodium album; conditions: Preemergence, scale 0 to 100
Procedure, shortened: as §1

oilseed rape [2] = experiment: Test D preemergence; format: in vivo, Brassica napus; conditions: Preemergence, scale 0 to 100
Procedure, shortened: as §1

pigweed = experiment: Test D preemergence; format: in vivo, Amaranthus retroflexus; conditions: Preemergence, scale 0 to 100
Procedure, shortened: as §1

barley, spring = experiment: Test D preemergence; format: in vivo, Hordeum vulgare; conditions: Preemergence, scale 0 to 100
Procedure, shortened: as §1

barley, winter = experiment: Test D preemergence; format: in vivo, Hordeum vulgare; conditions: Preemergence, scale 0 to 100
Procedure, shortened: as §1

wheat, spring = experiment: Test D preemergence; format: in vivo, Triticum aestivum; conditions: Preemergence, scale 0 to 100
Procedure, shortened: as §1

wheat, winter = experiment: Test D preemergence; format: in vivo, Triticum aestivum; conditions: Preemergence, scale 0 to 100
Procedure, shortened: as §1

buckwheat, wild = experiment: Test D preemergence; format: in vivo, Polygonum convolvulus; conditions: Preemergence, scale 0 to 100
Procedure, shortened: as §1

windgrass = experiment: Test D preemergence; format: in vivo, Apera spica-venti; conditions: Preemergence, scale 0 to 100
Procedure, shortened: as §1

ryegrass, Italian [3] = experiment: Test D postemergence; format: in vivo, Lolium multiflorum; conditions: scale 0 to 100
Procedure, shortened: as §1

oilseed rape [4] = experiment: Test D postemergence; format: in vivo, Brassica napus; conditions: scale 0 to 100
Procedure, shortened: as §1

chamomile = experiment: Test D postemergence; format: in vivo, Matricaria inodora; conditions: scale 0 to 100
Procedure, shortened: as §1

mustard, wild = experiment: Test D postemergence; format: in vivo, Sinapis arvensis; conditions: scale 0 to 100
Procedure, shortened: as §1

oat, wild = experiment: Test D postemergence; format: in vivo, Avena fatua; conditions: scale 0 to 100
Procedure, shortened: as §1

CCc1cc(C(=O)NCC(F)(F)F)nn1Cc1ccnc(SC(F)(F)F)c1 [Compound 214]
40: Plant response rating, Canarygrass (canarygrass; 31 g ai/ha) | Plant response rating, Barley, Spring (barley, spring; 62 g ai/ha) | Plant response rating, Wheat, Spring (wheat, spring; 125 g ai/ha) | Chamomile plant response rating (chamomile; Postemergence, 31 g ai/ha) | Chamomile plant response rating (chamomile; postemergence, 62 g ai/ha) | Oat, Wild plant response rating (oat, wild; Postemergence, 250 g ai/ha)
75: Plant response rating, Blackgrass (blackgrass; 62 g ai/ha) | Plant response rating, Chickweed (chickweed; 62 g ai/ha) | Plant response rating, Wheat, Spring (wheat, spring; 250 g ai/ha) | Plant response rating, Wheat, Winter (wheat, winter; 250 g ai/ha) | Oilseed Rape plant response rating (oilseed rape [4]; Postemergence, 125 g ai/ha)
95: Plant response rating, Buckwheat, Wild (buckwheat, wild; 62 g ai/ha)
90: Plant response rating, Blackgrass (blackgrass; 125 g ai/ha) | Plant response rating, Chickweed (chickweed; 31 g ai/ha) | Plant response rating, Ryegrass, Italian (ryegrass, Italian [1]; 250 g ai/ha) | Plant response rating, Lambsquarters (lambsquarters; 62 g ai/ha) | Plant response rating, Buckwheat, Wild (buckwheat, wild; 125 g ai/ha) | Plant response rating, Windgrass (windgrass; 125 g ai/ha)
45: Ryegrass, Italian plant response rating (ryegrass, Italian [3]; Postemergence, 250 g ai/ha)
80: Plant response rating, Barley, Spring (barley, spring; 250 g ai/ha)
10: Plant response rating, Barley, Spring (barley, spring; 31 g ai/ha) | Plant response rating, Wheat, Spring (wheat, spring; 62 g ai/ha) | Ryegrass, Italian plant response rating (ryegrass, Italian [3]; Postemergence, 31 g ai/ha) | Ryegrass, Italian plant response rating (ryegrass, Italian [3]; postemergence, 62 g ai/ha)
15: Plant response rating, Barley, Winter (barley, winter; 31 g ai/ha) | Plant response rating, Wheat, Winter (wheat, winter; 62 g ai/ha) | Oat, Wild plant response rating (oat, wild; Postemergence, 31 g ai/ha) | Oat, Wild plant response rating (oat, wild; postemergence, 62 g ai/ha)
35: Plant response rating, Blackgrass (blackgrass; 31 g ai/ha) | Plant response rating, Barley, Winter (barley, winter; 62 g ai/ha) | Plant response rating, Buckwheat, Wild (buckwheat, wild; 31 g ai/ha)
20: Ryegrass, Italian plant response rating (ryegrass, Italian [3]; Postemergence, 125 g ai/ha) | Oat, Wild plant response rating (oat, wild; Postemergence, 125 g ai/ha)
55: Plant response rating, Ryegrass, Italian (ryegrass, Italian [1]; 62 g ai/ha) | Plant response rating, Barley, Winter (barley, winter; 125 g ai/ha) | Plant response rating, Wheat, Winter (wheat, winter; 125 g ai/ha)
60: Chamomile plant response rating (chamomile; Postemergence, 125 g ai/ha)
100: Plant response rating, Blackgrass (blackgrass; 250 g ai/ha) | Plant response rating, Canarygrass (canarygrass; 125 g ai/ha) | Plant response rating, Canarygrass (canarygrass; 250 g ai/ha) | Plant response rating, Chickweed (chickweed; 125 g ai/ha) | Plant response rating, Chickweed (chickweed; 250 g ai/ha) | Plant response rating, Galium (galium; 125 g ai/ha) | Plant response rating, Galium (galium; 250 g ai/ha) | Plant response rating, Field Poppy (field poppy; 62 g ai/ha) | Plant response rating, Field Poppy (field poppy; 125 g ai/ha) | Plant response rating, Field Poppy (field poppy; 250 g ai/ha) | Plant response rating, Lambsquarters (lambsquarters; 125 g ai/ha) | Plant response rating, Lambsquarters (lambsquarters; 250 g ai/ha) | Plant response rating, Oilseed Rape (oilseed rape [2]; 125 g ai/ha) | Plant response rating, Oilseed Rape (oilseed rape [2]; 250 g ai/ha) | Plant response rating, Pigweed (pigweed; 62 g ai/ha) | Plant response rating, Pigweed (pigweed; 125 g ai/ha) | Plant response rating, Pigweed (pigweed; 250 g ai/ha) | Plant response rating, Buckwheat, Wild (buckwheat, wild; 250 g ai/ha) | Plant response rating, Windgrass (windgrass; 250 g ai/ha) | Oilseed Rape plant response rating (oilseed rape [4]; Postemergence, 250 g ai/ha) | Mustard, Wild plant response rating (mustard, wild; Postemergence, 125 g ai/ha) | Mustard, Wild plant response rating (mustard, wild; Postemergence, 250 g ai/ha)
65: Plant response rating, Canarygrass (canarygrass; 62 g ai/ha) | Plant response rating, Oilseed Rape (oilseed rape [2]; 62 g ai/ha) | Plant response rating, Barley, Spring (barley, spring; 125 g ai/ha) | Plant response rating, Barley, Winter (barley, winter; 250 g ai/ha) | Oilseed Rape plant response rating (oilseed rape [4]; Postemergence, 31 g ai/ha) | Oilseed Rape plant response rating (oilseed rape [4]; postemergence, 62 g ai/ha)
70: Plant response rating, Ryegrass, Italian (ryegrass, Italian [1]; 125 g ai/ha) | Chamomile plant response rating (chamomile; Postemergence, 250 g ai/ha) | Mustard, Wild plant response rating (mustard, wild; Postemergence, 31 g ai/ha) | Mustard, Wild plant response rating (mustard, wild; postemergence, 62 g ai/ha)
85: Plant response rating, Galium (galium; 62 g ai/ha) | Plant response rating, Windgrass (windgrass; 62 g ai/ha)
